Laboratory results reported in patent US20040116369A1, “Interferon regulatory factor-1/human estrogen receptor fusion protein and its use for treating carcinomas” (priority 2001, published 2004).

How the values were obtained:
[1] = tested on: NIH3T3TA/IH/MR cells; test: IFN secretion by antiviral assay; type: cell-based, murine; conditions: +E2 1 μM, five days, normalized to 10^6 cells
Protocol: (§1) IFN-Test. The interferon concentrations in the cell culture supernatants were determined by an antiviral assay imploying mouse L929 cells (43). To confirm the specificity of the antiviral activity a neutralizing monoclonal antibody directed against mouse IFN-β was added to the supernatant before addition to the test cells.
IFN secretion as determined by an antiviral assay was taken as a measure of IRF-1 activity.

[2] = tested on: NIH3T3TA/IH/MR cells; test: Proliferation (metabolic activity, WST); type: cell-based, murine; conditions: +E2 1 μM, seven days after treatment
Protocol: (§2) Measurement of cell growth. For determination of cell growth 2×10^3 cells/well were seeded into microtiter plates and serial dilutions (1:1) were performed allowing several independent measurement points. Cells were treated with the indicated concentration of β-estradiol. Cell growth was determined using the WST kit (Roche Diagnostics, Mannheim, Germany) following the manufacturer's instruction. Mean values of triplicates resulting in less than 10% deviation were plotted.
The effects of IRF-1 in oncogenically transformed NIH3T3 cells were examined. NIH3T3 cells conditionally expressing the oncogenes c-myc and c-Ha-ras were used. Both oncogenes were bicistrinically expressed under the control of the tetracycline regulatable promoter (Kröger, Dissertation, Universität Braunschweig, 1999). The cells were stably transfected with the IRF-1-hER fusion protein encoding construct. This cell line allows the investigation of IRF-1 effects in the non-transformed NIH3T3 cells (presence of Doxycycline) and in the transformed state of the cells (absense of Doxycycline). The antitumoral activity of IRF-1 in vitro was investigated: Influence on proliferation, soft agar growth and IFN induction with and without IRF-1hER activation by E2 treatment were measured. This was done in the non-transformed as well as in the transformed state. E2 and Doxycyline were added for five days.

[3] = tested on: HepaIRF-1hER cell clones; test: IFN secretion measured by antiviral assay in culture supernatant; type: cell-based, murine; conditions: +E2 1 μM, five days, normalized to 10^6 cells
Protocol: For activation of IRF-1 in the IRF-1-hER fusion protein, E2 (SERVA, Frankfurt, Germany) was added to the cell culture medium to reach a final concentration of 1 μM.
as §1

[4] = tested on: HepaIRF-1hER tumors; test: Subcutaneous tumor growth in syngeneic C57L/J mice; type: in vivo
Source text: (§3) Tumor model. The Hepa1-6 tumor model in C57L/J mice (44) was chosen because they show reliable growth in the syngeneic host. Hepa1-6 cells are a derivative of the BW7756 mouse hepatoma that arose in a C57L mouse. MHC class I and II expression is identical between C57L and C57L/J mice and Hepa1-6 HCCs are characterized by AFP expression. […] After 6 days, tumors were visible and reached a size of about 2000 mm^3 after a mean time of 18 days. This tumor size was used as endpoint in the invention, and mice were subsequently sacrificed. Tumor incidence and volume were assessed every two days using calipers. Data are presented as mean volume±SE.
(§4) Tumor protection studies. C57L/J mice were inoculated with 1×10^7 Hepa1-6 (groups 1 and 2) or HepaIRF-1hER (groups 3 and 4) cells into the right flank. Group 5 was not inoculated with any tumor. The different groups were treated as follows:
(§5) The efficacy of IRF-1 activation as a therapeutic vaccine against tumors was examined. Mice were injected subcutaneosly with HepaIRF-1hER cells in the right flank and wt Hepa1-6 cells into the left flank. The animals were either treated with 1.5 mg E2 every two days or were left untreated. Activation of IRF-1-hER abolished tumor growth of HepaIRF-1hER cells on the right flank of the mice.

[5] = tested on: Hepa1-6 (wt) tumors; test: Subcutaneous tumor growth in syngeneic C57L/J mice; type: in vivo; conditions: 1.5 mg E2 every two days i.p.
Source text: as §3, §4, §5

[6] = tested on: NIH3T3TA/MR/IH cells; test: Tumor growth of transformed cells in nude mice; type: in vivo, NMRI nude mice; conditions: 1.5 mg E2 every two days i.p.; 10^6 cells s.c.
Protocol: Male 6-8-week old NMRI nude mice (Harlan Winkelmann, Borchen, Germany) were maintained in the SPF unit of the animal facility of German Research Center for Biotechnology. Mice were divided into two experimental groups, five mice for each group. 1×10^6 cells in 0.2 ml PBS NIH3T3TA/MR/IH cells were injected subcutaneously into the flanks of the mice. The groups were treated as follows: group 1: no treatment (n=5); group 2: 1.5 mg of E2 every two days i.p. (n=4). Tumor volumes were measured and recorded three times a week using calipers. Data are presented as mean value of tumor volume.

[7] = tested on: Hepa1-6 cell clones expressing IRF-1hER (c4, c9, c22); test: Cell growth (WST metabolic activity); type: cell-based, murine; conditions: Mus musculus, Hepa1-6, 168 h, 7 days after IRF-1 activation, 1 μM β-estradiol, read-out: extent of proliferation inhibition
Protocol: as §2

[8] = tested on: NIH3T3TA/IH/MR cells; test: Anchorage independent growth in soft agar; type: cell-based, murine; conditions: +E2 1 μM, two weeks after treatment
Protocol: Assay for anchorage independent growth. Anchorage-independent growth capability was determined by assessing the colony-formation efficiency of cells suspended in soft agar. 1×10^3 cells were seeded in 50 μl of 0.3% overlay agar in microtiter plates coated with 50 μl 0.6% underlay agar. The induction medium was added to the top (50 μl/well). […] To determine wether IRF-1 reverses the transformed phenotype of the cells to the formation of colonies in soft agar was assayed. […] In contrast, in the absence of Doxycycline (transformed status) the cells grew well and formed soft agar clones. The ability of soft agar growth was completely abolished by the activation of IRF-1 by E2 gift (Table 3).

Structure (SMILES): C[C@]12CC[C@@H]3c4ccc(O)cc4CC[C@H]3[C@@H]1CC[C@@H]2O [E2, β-estradiol]
- IFN secretion ([1]; +DOX 2 μg/ml): 750 IU/ml
- IFN secretion ([1]; −Dox): 750 IU/ml
- Proliferation ([2]; +DOX 2 μg/ml (non-transformed)): 60%
- Proliferation ([2]; −Dox (transformed)): 65%
- IFN secretion ([3]; clone c4): 125 IU/ml
- IFN secretion ([3]; clone c9): 125 IU/ml
- IFN secretion ([3]; clone c22): 180 IU/ml
- Tumor volume (mean ± SD) ([4]; HepaIH 5 × 10^6 cells s.c., 1.5 mg E2 every two days i.p.): 22,4 ± 179 mm^3
- mice protected against challenge ([4]; HepaIRF-1hER tumor, E2 treatment): 75%
- tumor size after 40 days ([4]; the two E2 treated animals that developed tumors): 450 mm^3
- Tumor volume (mean ± SD) ([5]; Hepa1-6 (wt) 5 × 10^6 cells s.c.): 1630 ± 596 mm^3
- Tumor volume (mean ± SD) ([5]; Hepa1-6 tumor on left flank of mice also carrying HepaIH on right flank): 179 ± 288 mm^3
- mice that developed no tumors [6]: 40%
- inhibition at 1 µM [7]: 40 to 80%
- Soft agar growth (number of clones) ([8]; +DOX 2 μg/ml (non-transformed)): 0
- Soft agar growth (number of clones) ([8]; −Dox (transformed)): 0
